Results as given in the NIST ThermoML archive (doi:10.1021/je900596d).
± gives the expanded uncertainty stated by the source.

Details: 357.01 K, Liquid, Vibrating tube method

FC(F)=C(F)C(F)(F)F [hexafluoropropene]
Details	mass density [kg/m3]
3815.9 kPa	942.63 ± 1.1
3841.4 kPa	944.76 ± 1.1
3866.1 kPa	946.85 ± 1.1
3891.2 kPa	948.86 ± 1.1
3916.1 kPa	950.85 ± 1.1
3941.3 kPa	952.87 ± 1.1
3966.7 kPa	954.74 ± 1.1
3992.1 kPa	956.67 ± 1.1
4032.7 kPa	959.68 ± 1.1
4052.9 kPa	961.12 ± 1.1
4073.2 kPa	962.41 ± 1.1
4094 kPa	963.87 ± 1.1
4114.8 kPa	965.29 ± 1.1
4135 kPa	966.6 ± 1.1
4155.1 kPa	967.92 ± 1.1
4175.4 kPa	969.27 ± 1.1
4195.5 kPa	970.62 ± 1.1
4215.6 kPa	971.88 ± 1.1
4258.3 kPa	974.59 ± 1.1
4279.4 kPa	975.81 ± 1.1
4299.6 kPa	977.03 ± 1.1
4320.4 kPa	978.34 ± 1.1
4340.8 kPa	979.7 ± 1.1
4361.8 kPa	980.83 ± 1.1
4383.2 kPa	982.1 ± 1.1
4404.3 kPa	983.28 ± 1.1
4445.8 kPa	985.59 ± 1.1
4467.1 kPa	986.71 ± 1.1
4488.7 kPa	987.99 ± 1.1
4929.3 kPa	1009.65 ± 1.1
4970.6 kPa	1011.35 ± 1.1
5012.8 kPa	1013.28 ± 1.1
5053.2 kPa	1015.04 ± 1.1
5094.4 kPa	1016.71 ± 1.1
5178.4 kPa	1020.12 ± 1.1
5218.9 kPa	1021.7 ± 1.1
5262 kPa	1023.52 ± 1.1
5302.8 kPa	1025.13 ± 1.1
5344.2 kPa	1026.56 ± 1.1
5426.4 kPa	1029.68 ± 1.1
5468.6 kPa	1031.33 ± 1.1
5509.4 kPa	1032.71 ± 1.1
5595.1 kPa	1035.91 ± 1.1
5636.8 kPa	1037.33 ± 1.1
5678.3 kPa	1038.78 ± 1.1
5720.2 kPa	1040.29 ± 1.1
5761.9 kPa	1041.7 ± 1.1
5802.7 kPa	1043 ± 1.1
5844 kPa	1044.41 ± 1.1
5885.2 kPa	1045.79 ± 1.1
5926.3 kPa	1047.08 ± 1.1
5966.4 kPa	1048.43 ± 1.1
6079.9 kPa	1052.05 ± 1.1
6121.3 kPa	1053.27 ± 1.1
6161.6 kPa	1054.49 ± 1.1
6202.1 kPa	1055.73 ± 1.1
6242.6 kPa	1057.02 ± 1.1
6283 kPa	1058.17 ± 1.1
6323.7 kPa	1059.35 ± 1.1
6365.4 kPa	1060.53 ± 1.1
6405.9 kPa	1061.73 ± 1.1
6446.1 kPa	1062.93 ± 1.1
6487.1 kPa	1063.92 ± 1.1
6527.7 kPa	1065.18 ± 1.1
6568.3 kPa	1066.33 ± 1.1
6649.5 kPa	1068.55 ± 1.1
6689.8 kPa	1069.61 ± 1.1
6730.6 kPa	1070.82 ± 1.1
6771.8 kPa	1071.89 ± 1.1
6812.8 kPa	1072.89 ± 1.1
6854 kPa	1074.05 ± 1.1
6894.2 kPa	1075.07 ± 1.1
6976.2 kPa	1077.12 ± 1.1
7016.9 kPa	1078.17 ± 1.1
7059.1 kPa	1079.19 ± 1.1
7099.3 kPa	1080.34 ± 1.1
7141 kPa	1081.32 ± 1.1
7182 kPa	1082.35 ± 1.1
7223.7 kPa	1083.32 ± 1.1
7265.2 kPa	1084.37 ± 1.1
7306.5 kPa	1085.33 ± 1.1
7391.5 kPa	1087.34 ± 1.1
7432.1 kPa	1088.27 ± 1.1
7472.8 kPa	1089.26 ± 1.1
7514.5 kPa	1090.2 ± 1.1
7555.9 kPa	1091.18 ± 1.1
7596.5 kPa	1092.11 ± 1.1
7637.6 kPa	1093.07 ± 1.1
7760.7 kPa	1095.83 ± 1.1
7802.6 kPa	1096.76 ± 1.1
7843.1 kPa	1097.59 ± 1.1
7885.2 kPa	1098.49 ± 1.1
7925.7 kPa	1099.42 ± 1.1
7967.5 kPa	1100.24 ± 1.1
8050.7 kPa	1102.02 ± 1.1
8094 kPa	1102.97 ± 1.1
8134 kPa	1103.77 ± 1.1
8175.6 kPa	1104.71 ± 1.1
8217.3 kPa	1105.6 ± 1.1
8258 kPa	1106.39 ± 1.1
8301 kPa	1107.38 ± 1.1
8342.7 kPa	1108.09 ± 1.1
8385.4 kPa	1108.93 ± 1.1
8428.9 kPa	1109.88 ± 1.1
8510.3 kPa	1111.46 ± 1.1
8552.8 kPa	1112.27 ± 1.1
8592.9 kPa	1113.04 ± 1.1
8634.2 kPa	1113.83 ± 1.1
8675.9 kPa	1114.7 ± 1.1
8717.3 kPa	1115.43 ± 1.1
8760 kPa	1116.3 ± 1.1
8843.1 kPa	1117.91 ± 1.1
8884.8 kPa	1118.68 ± 1.1
8926.5 kPa	1119.39 ± 1.2
8969.2 kPa	1120.21 ± 1.1
9010.2 kPa	1120.94 ± 1.2
9055 kPa	1121.82 ± 1.2
9096.9 kPa	1122.57 ± 1.2
9138.6 kPa	1123.29 ± 1.2
9223.4 kPa	1124.87 ± 1.2
9264.9 kPa	1125.67 ± 1.2
9307.3 kPa	1126.46 ± 1.2
9350.7 kPa	1127.19 ± 1.2
9393 kPa	1127.83 ± 1.2
9476.5 kPa	1129.45 ± 1.2
9518.3 kPa	1130.09 ± 1.2
9558.9 kPa	1130.8 ± 1.2
9598.9 kPa	1131.49 ± 1.2
9640.9 kPa	1132.16 ± 1.2
9683.8 kPa	1132.95 ± 1.2
9726.5 kPa	1133.66 ± 1.2
9769.9 kPa	1134.38 ± 1.2
9810.5 kPa	1135.04 ± 1.2
